Source: ChEMBL document CHEMBL1933028, “Discovery of cyclic amine-substituted benzoic acids as PPARα agonists” (Bioorg Med Chem Lett, 2012)

What was measured:
Type in all cases: cell-based
[1] = target: T1, Peroxisome proliferator-activated receptor alpha (Homo sapiens, UniProt Q07869); experiment: Transactivation of human PPARalpha expressed in CHO-K1 cells
T1 sequence (Q07869 whole entry): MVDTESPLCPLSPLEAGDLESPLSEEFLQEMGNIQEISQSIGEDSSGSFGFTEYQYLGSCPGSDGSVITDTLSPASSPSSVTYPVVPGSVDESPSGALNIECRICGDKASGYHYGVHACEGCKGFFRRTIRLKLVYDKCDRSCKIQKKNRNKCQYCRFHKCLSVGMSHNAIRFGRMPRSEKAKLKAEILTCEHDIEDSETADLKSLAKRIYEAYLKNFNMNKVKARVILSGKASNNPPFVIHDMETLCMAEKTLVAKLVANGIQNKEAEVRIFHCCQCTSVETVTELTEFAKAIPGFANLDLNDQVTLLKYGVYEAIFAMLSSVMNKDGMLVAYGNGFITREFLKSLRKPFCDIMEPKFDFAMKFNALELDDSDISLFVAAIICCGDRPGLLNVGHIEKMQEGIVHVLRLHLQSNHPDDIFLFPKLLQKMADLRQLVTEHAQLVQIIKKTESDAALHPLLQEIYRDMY

[2] = target: T2, Peroxisome proliferator-activated receptor delta (Homo sapiens, UniProt Q03181); experiment: Transactivation of human PPARdelta expressed in CHO-K1 cells
T2 sequence (Q03181 whole entry): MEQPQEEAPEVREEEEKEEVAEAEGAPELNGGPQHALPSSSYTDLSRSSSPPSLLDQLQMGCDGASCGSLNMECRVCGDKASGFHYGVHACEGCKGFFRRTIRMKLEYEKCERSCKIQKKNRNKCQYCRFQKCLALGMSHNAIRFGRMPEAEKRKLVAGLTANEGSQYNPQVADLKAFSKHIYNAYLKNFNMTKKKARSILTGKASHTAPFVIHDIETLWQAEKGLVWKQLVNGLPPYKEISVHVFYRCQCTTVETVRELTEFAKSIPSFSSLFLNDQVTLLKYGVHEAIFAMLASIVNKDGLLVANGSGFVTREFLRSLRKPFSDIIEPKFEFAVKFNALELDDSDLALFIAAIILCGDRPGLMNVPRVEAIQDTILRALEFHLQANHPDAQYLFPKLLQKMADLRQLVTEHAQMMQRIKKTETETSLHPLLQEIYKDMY

[3] = target: T3, Peroxisome proliferator-activated receptor gamma (Homo sapiens, UniProt P37231); experiment: Transactivation of human PPARgamma expressed in CHO-K1 cells
T3 sequence (P37231 whole entry): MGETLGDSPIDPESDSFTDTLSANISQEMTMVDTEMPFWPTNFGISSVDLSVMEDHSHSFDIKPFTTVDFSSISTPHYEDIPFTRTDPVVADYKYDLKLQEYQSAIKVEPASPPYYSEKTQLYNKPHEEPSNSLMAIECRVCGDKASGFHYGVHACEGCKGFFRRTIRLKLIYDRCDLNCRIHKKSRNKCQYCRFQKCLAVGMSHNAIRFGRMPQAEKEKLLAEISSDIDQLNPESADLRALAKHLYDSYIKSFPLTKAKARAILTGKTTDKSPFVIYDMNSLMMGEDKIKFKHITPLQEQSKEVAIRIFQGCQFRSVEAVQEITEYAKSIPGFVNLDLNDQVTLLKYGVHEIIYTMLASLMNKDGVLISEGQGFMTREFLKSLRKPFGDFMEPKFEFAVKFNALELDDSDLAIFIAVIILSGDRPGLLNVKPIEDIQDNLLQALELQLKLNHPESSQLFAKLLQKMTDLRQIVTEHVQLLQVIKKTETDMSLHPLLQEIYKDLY

[4] = target: T2, Peroxisome proliferator-activated receptor delta; experiment: Transactivation of human PPARdelta expressed in CHO-K1 cells at 30 uM

EC50 [1] [µM] | EC50 [2] [µM] | EC50 [3] [µM] | EC50 [4] | SMILES
0.7 | 0.47 | 5.9 |  | COc1ccc(-c2cccc(C(=O)O)c2)cc1CNC(=O)c1ccc(Oc2ccccc2)cc1
4.4 |  |  |  | O=C(O)c1cccc(N2CCCC(CNC(=O)c3ccc(Oc4ccc(F)cc4)cc3)C2)c1 (centres undefined)
0.76 |  | > 4.9 | Not Active | Cc1nc(-c2ccc(Cl)cc2)sc1C(=O)NCC1CCCN(c2cccc(C(=O)O)c2)C1 (centres undefined)
> 3.5 |  |  |  | Cc1nc(-c2ccc(Cl)cc2)sc1C(=O)NCC1CCN(c2cccc(C(=O)O)c2)CC1
0.85 |  | > 10 | Not Active | Cc1nc(-c2ccc(Cl)cc2)sc1C(=O)NCC1CCN(c2cccc(C(=O)O)c2)C1 (centres undefined)
0.7 |  |  |  | Cc1nc(-c2ccc(Cl)cc2)sc1C(=O)NCC1CCCCN(c2cccc(C(=O)O)c2)C1 (centres undefined)
0.81 | > 17 | > 15 |  | Cc1nc(-c2ccc(Cl)cc2)sc1C(=O)NCC1CN(c2cccc(C(=O)O)c2)CCO1 (centres undefined)
> 14 |  |  |  | Cc1nc(-c2ccc(Cl)cc2)sc1CNC(=O)C1CCCN(c2cccc(C(=O)O)c2)C1 (centres undefined)
> 12 |  |  |  | Cc1nc(-c2ccc(Cl)cc2)sc1CC(=O)NC1CCCN(c2cccc(C(=O)O)c2)C1 (centres undefined)
0.005 | > 4.2 | > 10 |  | Cc1nc(-c2ccc(Cl)cc2)sc1C(=O)NC1CCCN(c2cccc(C(=O)O)c2)C1 (centres undefined)
0.28 |  | > 13 | Not Active | Cc1nc(-c2ccc(Cl)cc2)sc1NC(=O)C1CCCN(c2cccc(C(=O)O)c2)C1 (centres undefined)
3.4 |  |  |  | Cc1nc(-c2ccc(Cl)cc2)sc1C(=O)N(C)C1CCCN(c2cccc(C(=O)O)c2)C1 (centres undefined)
2.4 | > 13 | > 13 |  | Cc1nc(-c2ccc(Cl)cc2)sc1CNC1CCCN(c2cccc(C(=O)O)c2)C1 (centres undefined)
0.25 | > 6.3 | > 9.7 |  | Cc1nc(-c2ccc(Cl)cc2)sc1COC1CCCN(c2cccc(C(=O)O)c2)C1 (centres undefined)
0.12 | > 8.1 | > 9.8 |  | Cc1nc(-c2ccc(Cl)cc2)sc1/C=C/C1CCCN(c2cccc(C(=O)O)c2)C1 (centres undefined)
0.81 | > 6.8 | > 6.8 |  | Cc1nc(-c2ccc(Cl)cc2)sc1CCC1CCCN(c2cccc(C(=O)O)c2)C1 (centres undefined)
> 6 |  |  |  | Cc1nc(-c2ccc(Cl)cc2)sc1C(=O)NC1CCCN(c2ccccc2C(=O)O)C1 (centres undefined)
1.5 |  |  |  | Cc1nc(-c2ccc(Cl)cc2)sc1C(=O)NC1CCCN(c2ccc(C(=O)O)cc2)C1 (centres undefined)
1.2 |  | > 10 | Not Active | Cc1nc(-c2ccc(Cl)cc2)sc1C(=O)N[C@@H]1CCCN(c2cccc(C(=O)O)c2)C1
> 3.4 |  |  |  | Cc1sc(-c2ccc(Cl)cc2)nc1C(=O)N[C@H]1CCCN(c2cccc(C(=O)O)c2)C1
1.5 | > 13 | > 12 |  | Cc1nc(-c2ccc(Cl)cc2)oc1C(=O)N[C@H]1CCCN(c2cccc(C(=O)O)c2)C1
0.072 | 7.1 | > 19 |  | Cc1nc(-c2ccccc2)sc1C(=O)N[C@H]1CCCN(c2cccc(C(=O)O)c2)C1
0.026 | 2.4 | > 5.2 |  | Cc1nc(-c2cccc(Cl)c2)sc1C(=O)N[C@H]1CCCN(c2cccc(C(=O)O)c2)C1
0.053 | 1.9 | > 6.8 |  | Cc1nc(-c2ccccc2Cl)sc1C(=O)N[C@H]1CCCN(c2cccc(C(=O)O)c2)C1
0.021 | 8.8 | > 9.8 |  | Cc1nc(-c2ccc(F)cc2)sc1C(=O)N[C@H]1CCCN(c2cccc(C(=O)O)c2)C1
0.006 | 3.1 | > 11 |  | Cc1ccc(-c2nc(C)c(C(=O)N[C@H]3CCCN(c4cccc(C(=O)O)c4)C3)s2)cc1
0.023 | 1.8 | > 11 |  | COc1ccc(-c2nc(C)c(C(=O)N[C@H]3CCCN(c4cccc(C(=O)O)c4)C3)s2)cc1
0.037 | > 11 | > 13 |  | Cc1nc(-c2ccc([N+](=O)[O-])cc2)sc1C(=O)N[C@H]1CCCN(c2cccc(C(=O)O)c2)C1
0.013 | 1.92 | 2.5 |  | CC[C@@H](Cc1ccc(OC)c(C(=O)NCc2ccc(Oc3ccc(F)cc3)cc2)c1)C(=O)O
